# Test results as given in paper PMC11855827, “High-Throughput Screening of Five Compound Libraries for Anthelmintic Activity and Toxicity Leads to the Discovery of Two Flavonoid Compounds” (International Journal of Molecular Sciences, 2025).
# Where two headings read alike, the source gives them in different places.
# Tested on: C. elegans
# [1] = Table S2, C. elegans SS assay, 110 μM, 0 h, averages of 4 data points
# [2] = Table S2, C. elegans SS assay, 110 μM, 24 h, averages of 4 data points
Structure (SMILES),Percentage of motility inhibition 0 h [1] [%],Percentage of motility inhibition 24 h [2] [%],Percentage of motility inhibition 0 h (110 µM) [%],Percentage of motility inhibition 24 h (110 µM) [%]
"C/C=C(/C)C(=O)O[C@H]1C(C)=C[C@]23C(=O)[C@@H](C=C4COC(C)(C)O[C@H]4[C@]12O)[C@H]1[C@@H](C[C@H]3C)C1(C)C [Ingenol-5,20-acetonide-3-O-angelate]",0,0,,
C=C1C(=O)O[C@@H]2CC(C)=C([C@@H](C)CCCOC(C)=O)[C@@H](O)[C@H]12 [Inulicin],0,16,,
C=C[C@H]1[C@H](O[C@@H]2O[C@H](CO)[C@@H](O)[C@H](O)[C@H]2O)OC=C(C(=O)OC)[C@H]1C[C@@H]1c2cc(O)c(O)cc2CCN1C(C)=O [Ipecoside],0,14,,
CCc1c2c(nc3ccc(OC(=O)N4CCC(N5CCCCC5)CC4)cc13)-c1cc3c(c(=O)n1C2)COC(=O)[C@]3(O)CC.Cl [Irinotecan (hydrochloride)],0,11,,
COc1ccc(-c2coc3cc(O[C@@H]4O[C@H](CO)[C@@H](O)[C@H](O)[C@H]4O)c(OC)c(O)c3c2=O)cc1O [Iristectorin A],0,2,,
COc1cc(-c2coc3cc(O[C@@H]4O[C@H](CO)[C@@H](O)[C@H](O)[C@H]4O)c(OC)c(O)c3c2=O)ccc1O [Iristectorin B],5,6,,
CC(=O)O[C@@H]1[C@@H](O)[C@H](O[C@H]2CC[C@]34C[C@]35CC[C@]3(C)[C@@H]([C@@]6(C)CC[C@@H](C(C)(C)O)O6)[C@@H](O)C[C@@]3(C)[C@@H]5C[C@H](O[C@@H]3O[C@H](CO)[C@@H](O)[C@H](O)[C@H]3O)[C@H]4C2(C)C)OC[C@H]1O [Isoastragaloside II],0,9,,
CC(C)(O[C@@H]1O[C@H](CO)[C@@H](O)[C@H](O)[C@H]1O)[C@@H]1CC[C@](C)([C@H]2[C@@H](O)C[C@@]3(C)[C@@H]4C[C@H](O)[C@H]5C(C)(C)[C@@H](O[C@@H]6OC[C@@H](O)[C@H](O)[C@H]6O)CC[C@@]56C[C@@]46CC[C@]23C)O1 [Isoastragaloside IV],0,0,,
CC(=O)O[C@H]1[C@H](O[C@H]2CC[C@]34C[C@]35CC[C@]3(C)[C@@H]([C@@]6(C)CC[C@@H](C(C)(C)O)O6)[C@@H](O)C[C@@]3(C)[C@@H]5C[C@H](O[C@@H]3O[C@H](CO)[C@@H](O)[C@H](O)[C@H]3O)[C@H]4C2(C)C)OC[C@@H](OC(C)=O)[C@@H]1O [Isoastragaloside I],12,59,,
Clc1ccc(C(Cn2ccnc2)OCc2c(Cl)cccc2Cl)c(Cl)c1.O=[N+]([O-])O (centres unmarked) [Isoconazole (nitrate)],17,4,,
CC1(C)C2=CCCC(C)(C)[C@]23CC[C@H]1C3 [Isolongifolene],2,39,,
O=c1c2cc(O)c(O)cc2oc2c([C@@H]3O[C@H](CO)[C@@H](O)[C@H](O)[C@H]3O)c(O)cc(O)c12 [Isomangiferin],28,46,,
C[C@H](CC[C@@H](O[C@@H]1O[C@H](CO[C@@H]2O[C@H](CO)[C@@H](O)[C@H](O)[C@H]2O)[C@@H](O)[C@H](O)[C@H]1O[C@@H]1O[C@H](CO)[C@@H](O)[C@H](O)[C@H]1O)C(C)(C)O)[C@H]1CC[C@@]2(C)[C@@H]3CC=C4[C@@H](CC[C@H](O[C@@H]5O[C@H](CO)[C@@H](O[C@@H]6O[C@H](CO)[C@@H](O)[C@H](O)[C@H]6O)[C@H](O)[C@H]5O)C4(C)C)[C@]3(C)[C@H](O)C[C@]12C [Isomogroside V],28,21,,
COc1ccc([C@@H]2COc3cc(O[C@@H]4O[C@H](CO)[C@@H](O)[C@H](O)[C@H]4O)ccc3C2)c(O)c1OC [Isomucronulatol 7‐O‐glucoside],8,10,,
COc1ccc(C2COc3cc(O)ccc3C2)c(O)c1OC (centres unmarked) [Isomucronulatol],7,7,,
COC(=O)C1=CO[C@@H](C)[C@@H]2CN3CC[C@@]4(C(=O)Nc5ccccc54)[C@@H]3C[C@H]12 [Isopteropodine],9,0,,
COc1cc(-c2oc3cc(O)cc(O)c3c(=O)c2O[C@@H]2O[C@H](CO)[C@@H](O)[C@H](O)[C@H]2O[C@@H]2O[C@@H](C)[C@H](O)[C@@H](O)[C@H]2O)ccc1O [Isorhamnetin‐3‐O‐neohespeidoside],45,5,,
COc1ccc([C@@H]2CC(=O)c3c(O)cc(O[C@@H]4O[C@H](CO)[C@@H](O)[C@H](O)[C@H]4O)cc3O2)cc1 [Isosakuranin],1,2,,
O=c1cc(-c2ccc(O)cc2)oc2c([C@@H]3O[C@H](CO)[C@@H](O)[C@H](O)[C@H]3O)c(O)c([C@@H]3OC[C@H](O)[C@H](O)[C@H]3O)c(O)c12 [Isoschaftoside],9,0,,

Structure (SMILES),Percentage of motility inhibition 0 h [1] [%],Percentage of motility inhibition 24 h [2] [%],Percentage of motility inhibition 0 h (110 µM) [%],Percentage of motility inhibition 24 h (110 µM) [%]
COc1cc(C2Oc3ccc([C@H]4Oc5cc(O)cc(O)c5C(=O)[C@@H]4O)cc3OC2CO)ccc1O (some centres unmarked) [Isosilybin],2,0,,
COc1ccc(-c2cc(=O)c3c(OC)cc(OC)c(OC)c3o2)cc1OC [Isosinensetin],0,2,,
C[C@H]1CC[C@@H]2N(C1)C[C@H]1[C@@H]3C[C@H]4[C@@H](C[C@@H](O)[C@H]5C[C@@H](O)CC[C@@]54C)[C@@H]3CC[C@@H]1[C@]2(C)O [Isoverticine],0,0,,
C[C@@H]1O[C@@H](c2c(O)c([C@@H]3O[C@H](CO)[C@@H](O)[C@H](O)[C@H]3O)c3oc(-c4ccc(O)cc4)cc(=O)c3c2O)[C@H](O)[C@H](O)[C@H]1O [Isoviolanthin],21,2,,
COc1cc(-c2cc(=O)c3c(O)c(OC)c(O)cc3o2)ccc1O [Jaceosidin],0,5,,
COc1cc2c(cc1O)CC[n+]1cc3c(OC)c(OC)ccc3cc1-2.[Cl-] [Jatrorrhizine (chloride)],33,4,,
COc1cc2c(cc1O)CC[n+]1cc3c(OC)c(OC)ccc3cc1-2.[OH-] [Jatrorrhizine (hydroxide)],8,5,,
Oc1cnc2c(O)cccc2c1 [Jineol],0,0,,
CC(C)=C[C@H]1C[C@](C)(O)[C@@H]2[C@H]3CC[C@@H]4[C@@]5(C)CC[C@H](O[C@@H]6OC[C@H](O)[C@H](O[C@@H]7O[C@H](CO[C@@H]8O[C@H](CO)[C@@H](O)[C@H](O)[C@H]8O)[C@@H](O)[C@H](O)[C@H]7O[C@@H]7OC[C@@H](O)[C@H](O)[C@H]7O)[C@H]6O[C@@H]6O[C@@H](C)[C@H](O)[C@@H](O)[C@H]6O)C(C)(C)[C@@H]5CC[C@@]4(C)[C@@]34CO[C@@]2(C4)O1 [Jujuboside A],,,0,0
CC(C)=C[C@H]1C[C@](C)(O)[C@@H]2[C@H]3CC[C@@H]4[C@@]5(C)CC[C@H](O[C@@H]6OC[C@H](O)[C@H](O[C@@H]7O[C@H](CO)[C@@H](O)[C@H](O)[C@H]7O[C@@H]7OC[C@@H](O)[C@H](O)[C@H]7O)[C@H]6O[C@@H]6O[C@@H](C)[C@H](O)[C@@H](O)[C@H]6O)C(C)(C)[C@@H]5CC[C@@]4(C)[C@@]34CO[C@@]2(C4)O1 [Jujuboside B],0,0,,
O=c1c(O[C@@H]2O[C@H](CO[C@@H]3O[C@H](CO)[C@@H](O)[C@H](O)[C@H]3O)[C@@H](O)[C@H](O)[C@H]2O)c(-c2ccc(O)cc2)oc2cc(O)cc(O)c12 [Kaempferol 3‐O‐gentiobioside],0,12,,
O=C(O)[C@H]1O[C@@H](Oc2c(-c3ccc(O)cc3)oc3cc(O)cc(O)c3c2=O)[C@H](O)[C@@H](O)[C@@H]1O [Kaempferol 3‐O‐β‐D‐glucuronide],5,0,,
C[C@@H]1O[C@@H](O[C@H]2[C@H](Oc3c(-c4ccc(O)cc4)oc4cc(O)cc(O)c4c3=O)O[C@H](CO)[C@@H](O)[C@@H]2O)[C@H](O)[C@H](O)[C@H]1O [Kaempferol 3‐neohesperidoside],17,10,,
C[C@@H]1O[C@@H](O[C@H]2[C@H](Oc3c(-c4ccc(O)cc4)oc4cc(O)cc(O)c4c3=O)O[C@H](CO)[C@@H](O)[C@@H]2O)[C@H](O)[C@H](O)[C@H]1O [Kaempferol‐3‐O‐glucorhamnoside],5,2,,
C[C@@]12C=Cc3occc3[C@H]1CC[C@@]13C[C@@H](CC[C@H]12)[C@@](O)(CO)C3 [Kahweol],11,19,,
C=C1CC[C@@H]2[C@](C)(COC(=O)CCC(=O)[O-])[C@H](OC(=O)CCC(=O)O)CC[C@@]2(C)[C@@H]1/C=C/C1=CCOC1=O.[K+] [Kalii Dehydrographolidi Succinas],5,5,,
NC[C@H]1O[C@H](O[C@H]2[C@H](O)[C@@H](O[C@H]3O[C@H](CO)[C@@H](O)[C@H](N)[C@H]3O)[C@H](N)C[C@@H]2N)[C@H](O)[C@@H](O)[C@@H]1O.O=S(=O)(O)O [Kanamycin (sulfate)],22,7,,
C[C@@H]1CC[C@@H]2O[C@@]23C(=O)C(=O)[C@@H]2[C@@H](C2(C)C)[C@@]13C [Kanshone C],17,22,,
